Reference: patent US20230301968A1 (ZEPHAPHARM LTD, priority 2020, published 2023)

Experiments:
Type in all cases: in vitro ADME
CYP1A2 = target: T1, CYP1A2 (Homo sapiens, UniProt P05177); experiment: Cytochrome P450 reaction phenotyping, recombinant CYP1A2
T1 construct: purchased
T1 sequence (P05177 1-516): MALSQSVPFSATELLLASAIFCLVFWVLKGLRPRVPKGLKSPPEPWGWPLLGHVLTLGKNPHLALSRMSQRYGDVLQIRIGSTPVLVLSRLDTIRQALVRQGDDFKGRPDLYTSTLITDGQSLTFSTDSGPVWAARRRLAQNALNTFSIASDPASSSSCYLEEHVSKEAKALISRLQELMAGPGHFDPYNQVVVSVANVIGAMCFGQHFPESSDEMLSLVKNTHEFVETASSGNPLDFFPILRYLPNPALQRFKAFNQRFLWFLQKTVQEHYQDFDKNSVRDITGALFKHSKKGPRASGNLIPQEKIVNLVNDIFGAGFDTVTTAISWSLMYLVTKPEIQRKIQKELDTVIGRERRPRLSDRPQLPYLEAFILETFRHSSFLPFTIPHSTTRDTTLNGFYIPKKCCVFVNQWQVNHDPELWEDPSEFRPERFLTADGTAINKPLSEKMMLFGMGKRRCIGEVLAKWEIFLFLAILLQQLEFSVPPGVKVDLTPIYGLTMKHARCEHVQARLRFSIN
Description: (§1) The amount of test compound remaining at each time point was analysed by LC-MS/MS. Incubations in control recombinant enzymes were also performed to assess non-enzymatic mediated stability.
(§2) Incubations were also performed using control Bactosomes™ (no cytochrome P450 enzymes present) to reveal any non-enzymatic degradation. Control compounds known to be metabolised specifically by each P450 isoform were included. All incubations were performed singularly for each test compound. […] The reactions were stopped by transferring an aliquot of incubate to quench solvent at the appropriate time points, in a 1:3 ratio. The termination plates were centrifuged at 3,000 rpm for 20 min at 4° C. to precipitate the protein. Following protein precipitation, the sample supernatants were analysed using LC-MS/MS, along with internal standard (1:1 supernatant to internal standard).
(§3) Following correction for any loss in the incubations with the control Bactosomes™, from a plot of In peak area ratio (compound peak area/internal standard peak area) against time, the gradient of the line was determined. Subsequently, half-life (t½) was calculated using the equations below: […]

CYP2C8 = target: T2, CYP2C8 (Homo sapiens, UniProt P10632); experiment: Cytochrome P450 reaction phenotyping, recombinant CYP2C8; settings: for t½: 1 µM substrate, recombinant CYP2C8, NADPH
T2 construct: purchased
T2 sequence (P10632 1-490): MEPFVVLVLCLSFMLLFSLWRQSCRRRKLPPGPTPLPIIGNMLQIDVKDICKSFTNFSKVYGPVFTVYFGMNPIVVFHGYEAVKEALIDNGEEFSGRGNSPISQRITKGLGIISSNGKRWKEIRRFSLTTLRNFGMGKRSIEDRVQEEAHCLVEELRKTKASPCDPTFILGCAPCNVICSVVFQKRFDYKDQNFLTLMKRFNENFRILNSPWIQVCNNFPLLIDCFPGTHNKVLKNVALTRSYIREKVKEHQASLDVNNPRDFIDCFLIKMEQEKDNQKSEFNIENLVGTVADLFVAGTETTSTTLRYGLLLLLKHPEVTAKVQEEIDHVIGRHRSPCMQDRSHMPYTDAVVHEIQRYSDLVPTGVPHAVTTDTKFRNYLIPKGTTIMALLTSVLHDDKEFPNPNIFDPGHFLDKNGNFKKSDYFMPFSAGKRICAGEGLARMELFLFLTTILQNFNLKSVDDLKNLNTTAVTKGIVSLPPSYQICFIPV
Description: as §1, §2, §3

CYP2C19 = target: T3, CYP2C19 (Homo sapiens, UniProt P33261); experiment: Cytochrome P450 reaction phenotyping, recombinant CYP2C19; settings: for t½: 1 µM substrate, recombinant CYP2C19, NADPH
T3 construct: purchased
T3 sequence (P33261 whole entry): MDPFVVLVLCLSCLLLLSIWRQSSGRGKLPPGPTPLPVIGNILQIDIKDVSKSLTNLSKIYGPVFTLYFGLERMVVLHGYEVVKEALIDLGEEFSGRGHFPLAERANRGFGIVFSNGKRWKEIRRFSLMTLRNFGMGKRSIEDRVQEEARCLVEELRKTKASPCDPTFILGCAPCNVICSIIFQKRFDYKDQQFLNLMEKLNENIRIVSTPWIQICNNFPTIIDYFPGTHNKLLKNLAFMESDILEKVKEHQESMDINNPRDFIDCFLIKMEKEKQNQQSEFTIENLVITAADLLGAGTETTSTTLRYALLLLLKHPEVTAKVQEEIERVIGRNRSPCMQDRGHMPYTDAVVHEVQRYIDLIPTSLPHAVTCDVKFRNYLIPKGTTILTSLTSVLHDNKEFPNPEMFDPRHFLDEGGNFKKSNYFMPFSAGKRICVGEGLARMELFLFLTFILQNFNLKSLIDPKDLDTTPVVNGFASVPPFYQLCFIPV
Description: as §1, §2, §3

CYP2D6 = target: T4, CYP2D6 (Homo sapiens, UniProt P10635); experiment: Cytochrome P450 reaction phenotyping, recombinant CYP2D6
T4 construct: purchased
T4 sequence (P10635 whole entry): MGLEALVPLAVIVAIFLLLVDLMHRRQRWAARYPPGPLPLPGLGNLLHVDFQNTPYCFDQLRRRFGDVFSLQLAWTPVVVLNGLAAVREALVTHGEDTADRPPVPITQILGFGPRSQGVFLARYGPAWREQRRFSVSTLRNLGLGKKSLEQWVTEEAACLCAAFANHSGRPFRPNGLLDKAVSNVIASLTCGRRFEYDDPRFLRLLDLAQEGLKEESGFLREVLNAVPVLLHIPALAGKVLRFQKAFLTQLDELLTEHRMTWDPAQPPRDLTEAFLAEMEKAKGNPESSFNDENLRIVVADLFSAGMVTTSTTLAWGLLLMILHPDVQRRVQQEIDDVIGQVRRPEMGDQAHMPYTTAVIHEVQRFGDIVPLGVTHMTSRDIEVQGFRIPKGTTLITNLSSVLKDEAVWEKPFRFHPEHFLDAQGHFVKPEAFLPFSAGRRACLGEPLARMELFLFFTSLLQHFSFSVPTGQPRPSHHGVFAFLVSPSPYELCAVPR
Description: as §1, §2, §3

Compound: COC(=O)Nc1nc2cc(C(=O)c3ccc(F)cc3)ccc2[nH]1 [Flubendazole, methyl N-[6-(4-fluorobenzoyl)-1H-benzimidazol-2-yl]carbamate]
- Compound Remaining (% of 0 min) (CYP1A2; CYP1A2, 0 min): 100%
- Compound Remaining (% of 0 min) (CYP1A2; CYP1A2, 5 min): 38.6%
- Compound Remaining (% of 0 min) (CYP1A2; CYP1A2, 15 min): 1.30%
- Compound Remaining (% of 0 min) (CYP1A2; CYP1A2, 30 min): 0.0440%
- Compound Remaining (% of 0 min) (CYP1A2; CYP1A2, 45 min): 0.002%
- half-life at 1 µM (CYP1A2; human, pH 7.4, 1 µM substrate, recombinant CYP1A2, NADPH, 30 and 45 minute time points excluded, read-out: t½): 2.34 min
- t½ (CYP2C8): 11.5 h
- t½ (CYP2C8; listed as flubendazole): ≥ 2.45 h
- Compound Remaining (% of 0 min) (CYP2C8; CYP2C8, 0 min): 100%
- Compound Remaining (% of 0 min) (CYP2C8; CYP2C8, 5 min): 100%
- Compound Remaining (% of 0 min) (CYP2C8; CYP2C8, 30 min): 99.4%
- Compound Remaining (% of 0 min) (CYP2C8; CYP2C8, 45 min): 95.3%
- t½ (CYP2C19): 13.6 h
- t½ (CYP2C19; listed as flubendazole): ≥ 2.45 h
- Compound Remaining (% of 0 min) (CYP2C19; CYP2C19, 0 min): 100%
- Compound Remaining (% of 0 min) (CYP2C19; CYP2C19, 5 min): 99.5%
- Compound Remaining (% of 0 min) (CYP2C19; CYP2C19, 15 min): 97.7%
- Compound Remaining (% of 0 min) (CYP2C19; CYP2C19, 30 min): 98.8%
- Compound Remaining (% of 0 min) (CYP2C19; CYP2C19, 45 min): 95.5%
- t½ (CYP2D6; 1 µM substrate, recombinant CYP2D6, NADPH): 2.45 h
- Compound Remaining (% of 0 min) (CYP2D6; CYP2D6, 0 min): 100%
- Compound Remaining (% of 0 min) (CYP2D6; CYP2D6, 5 min): 93.1%
- Compound Remaining (% of 0 min) (CYP2D6; CYP2D6, 15 min): 90.0%
- Compound Remaining (% of 0 min) (CYP2D6; CYP2D6, 30 min): 85.6%
- Compound Remaining (% of 0 min) (CYP2D6; CYP2D6, 45 min): 78.9%
- half-life at 1 µM (CYP2D6; human, pH 7.4, 1 µM substrate, recombinant CYP2D6, NADPH, read-out: t½): ≥ 2.45 h
